Measured values: publication PMC9671377, “Label-free affinity screening, design and synthesis of inhibitors targeting the Mycobacterium tuberculosis L-alanine dehydrogenase” (PLOS ONE, 2022)

Columns and labels:
L249A AlaDH = L249A AlaDH (Mycobacterium tuberculosis, UniProt P9WQB1, L249A); format: biochemical
L225A AlaDH = L225A AlaDH (Mycobacterium tuberculosis, UniProt P9WQB1, L225A); format: biochemical

## CC(C)CNc1ncnc2c1ncn2[C@@H]1O[C@H](CO)[C@@H](O)[C@H]1O [N6-isobutyl adenosine]
L249A AlaDH
  vi of L249A AlaDH after adding compound: 1.007 x10^-3 [NADH]OD340/min
L225A AlaDH
  vi of L225A AlaDH after adding compound: 0.821 x10^-3 [NADH]OD340/min
